Converted amounts (≈) assume the structure as drawn.
How the values were obtained:
Histamine H3 receptor [1] = molecular target: T1, Histamine H3 receptor (Homo sapiens, UniProt Q9Y5N1); test: Antagonist activity at human histamine H3 receptor in human T-REx-293 cells assessed as inhibition of basal GTPgammaS binding at 10 uM after 90 mins by scintillation counting analysis relative to control; type: functional, cell-based; details: HEK293
Histamine H3 receptor [2] = molecular target: T1, Histamine H3 receptor; test: Antagonist activity at human histamine H3 receptor expressed in HEK293 cells assessed as inhibition of calcium mobilization by FLIPR assay; type: functional, cell-based
[3] = molecular target: Melanin-concentrating hormone receptor 1 (Homo sapiens) (UniProt Q99705); test: Antagonist activity at human MCH1R assessed as inhibition of calcium mobilization at 10 uM by FLIPR assay relative to control; type: functional
[4] = molecular target: Histamine H1 receptor (Homo sapiens) (UniProt P35367); test: Antagonist activity at human histamine H1 receptor assessed as inhibition of calcium mobilization at 10 uM by FLIPR assay relative to control; type: functional
[5] = molecular target: Histamine H2 receptor (Homo sapiens) (UniProt P25021); test: Antagonist activity at human histamine H2 receptor assessed as inhibition of calcium mobilization at 10 uM by FLIPR assay relative to control; type: functional
Histamine receptor H3 = Histamine receptor H3 (Macaca mulatta, UniProt Q865E1); test: Displacement of [3H]N-alpha-methylhistamine from cloned rhesus monkey histamine H3 receptor transfected in CHO cells after 1 hr by scintillation counting analysis; type: cell-based
Histamine H3 receptor [6] = molecular target: Histamine H3 receptor (Rattus norvegicus, UniProt Q9QYN8); test: Displacement of [3H]N-alpha-methylhistamine from cloned rat histamine H3 receptor transfected in CHO cells after 1 hr by scintillation counting analysis; type: cell-based
Histamine H3 receptor [7] = molecular target: T1, Histamine H3 receptor; test: Displacement of [3H]N-alpha-methylhistamine from cloned human histamine H3 receptor transfected in CHO cells after 1 hr by scintillation counting analysis; type: cell-based
[8] = Drug metabolism in mouse liver microsomes; type: ADME, Microsome; details: read-out: Drug metabolism
[9] = Drug metabolism in rat liver microsomes; type: ADME, Microsome; details: read-out: Drug metabolism
[10] = Solubility of the compound; type: physicochemical
[11] = Drug metabolism in human liver microsomes; type: ADME, Microsome; details: read-out: Drug metabolism
hERG (KCNH2) = hERG (KCNH2) (Homo sapiens, UniProt Q12809); test: Inhibition of human ERG at 10 uM relative to control
Chain of hERG (KCNH2) (Q12809 whole entry): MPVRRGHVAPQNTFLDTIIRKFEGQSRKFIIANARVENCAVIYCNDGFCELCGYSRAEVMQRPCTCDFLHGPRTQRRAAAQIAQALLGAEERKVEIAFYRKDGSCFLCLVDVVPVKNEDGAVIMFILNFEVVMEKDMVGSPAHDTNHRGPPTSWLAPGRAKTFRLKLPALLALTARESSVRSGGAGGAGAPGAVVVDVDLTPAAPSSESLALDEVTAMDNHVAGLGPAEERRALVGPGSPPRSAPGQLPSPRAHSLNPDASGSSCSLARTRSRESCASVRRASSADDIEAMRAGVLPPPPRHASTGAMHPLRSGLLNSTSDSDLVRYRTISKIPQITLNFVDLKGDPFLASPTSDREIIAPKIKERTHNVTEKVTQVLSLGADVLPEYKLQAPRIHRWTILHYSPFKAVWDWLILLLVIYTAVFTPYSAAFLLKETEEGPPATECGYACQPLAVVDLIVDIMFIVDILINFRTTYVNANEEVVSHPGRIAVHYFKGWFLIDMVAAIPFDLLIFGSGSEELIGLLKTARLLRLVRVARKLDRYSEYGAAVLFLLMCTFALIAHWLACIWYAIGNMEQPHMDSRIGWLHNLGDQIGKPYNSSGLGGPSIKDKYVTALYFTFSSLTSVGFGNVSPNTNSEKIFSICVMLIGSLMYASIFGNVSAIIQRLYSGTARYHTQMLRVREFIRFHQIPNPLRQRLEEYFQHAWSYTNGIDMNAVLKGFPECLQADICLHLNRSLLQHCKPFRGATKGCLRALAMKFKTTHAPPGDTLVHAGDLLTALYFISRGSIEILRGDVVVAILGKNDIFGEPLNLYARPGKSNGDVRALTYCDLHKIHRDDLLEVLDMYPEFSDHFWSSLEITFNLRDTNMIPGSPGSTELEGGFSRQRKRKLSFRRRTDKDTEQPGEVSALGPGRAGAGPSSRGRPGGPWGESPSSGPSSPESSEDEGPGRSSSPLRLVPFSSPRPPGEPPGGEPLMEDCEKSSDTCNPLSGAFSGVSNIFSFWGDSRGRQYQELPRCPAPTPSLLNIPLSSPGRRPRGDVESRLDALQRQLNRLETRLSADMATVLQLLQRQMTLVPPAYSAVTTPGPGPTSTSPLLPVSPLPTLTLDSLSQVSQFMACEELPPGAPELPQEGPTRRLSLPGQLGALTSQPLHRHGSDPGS

Chain of Histamine H2 receptor (Homo sapiens) (P25021 whole entry): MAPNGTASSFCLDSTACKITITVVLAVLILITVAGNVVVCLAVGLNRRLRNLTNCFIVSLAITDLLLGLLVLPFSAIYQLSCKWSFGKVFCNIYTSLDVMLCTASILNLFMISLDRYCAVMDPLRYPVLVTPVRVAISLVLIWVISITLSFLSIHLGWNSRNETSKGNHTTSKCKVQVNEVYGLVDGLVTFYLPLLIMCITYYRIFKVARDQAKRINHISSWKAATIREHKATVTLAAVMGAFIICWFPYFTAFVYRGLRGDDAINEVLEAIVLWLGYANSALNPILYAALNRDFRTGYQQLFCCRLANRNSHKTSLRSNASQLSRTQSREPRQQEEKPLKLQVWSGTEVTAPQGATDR
Chain of Histamine receptor H3 (Q865E1 whole entry): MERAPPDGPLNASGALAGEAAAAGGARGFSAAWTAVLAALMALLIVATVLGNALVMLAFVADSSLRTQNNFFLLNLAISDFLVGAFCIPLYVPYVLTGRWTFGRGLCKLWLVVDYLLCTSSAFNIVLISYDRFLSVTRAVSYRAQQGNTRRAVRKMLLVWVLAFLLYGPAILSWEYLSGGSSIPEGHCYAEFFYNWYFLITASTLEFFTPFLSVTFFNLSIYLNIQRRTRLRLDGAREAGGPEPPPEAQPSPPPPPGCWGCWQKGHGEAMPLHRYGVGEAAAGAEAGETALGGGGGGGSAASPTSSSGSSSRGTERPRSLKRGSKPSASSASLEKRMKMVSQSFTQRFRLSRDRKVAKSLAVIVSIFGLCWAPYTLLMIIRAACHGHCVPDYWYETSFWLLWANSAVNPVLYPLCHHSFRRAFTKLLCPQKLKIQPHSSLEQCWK
Chain of Histamine H3 receptor (Rattus norvegicus, UniProt Q9QYN8) (Q9QYN8 whole entry): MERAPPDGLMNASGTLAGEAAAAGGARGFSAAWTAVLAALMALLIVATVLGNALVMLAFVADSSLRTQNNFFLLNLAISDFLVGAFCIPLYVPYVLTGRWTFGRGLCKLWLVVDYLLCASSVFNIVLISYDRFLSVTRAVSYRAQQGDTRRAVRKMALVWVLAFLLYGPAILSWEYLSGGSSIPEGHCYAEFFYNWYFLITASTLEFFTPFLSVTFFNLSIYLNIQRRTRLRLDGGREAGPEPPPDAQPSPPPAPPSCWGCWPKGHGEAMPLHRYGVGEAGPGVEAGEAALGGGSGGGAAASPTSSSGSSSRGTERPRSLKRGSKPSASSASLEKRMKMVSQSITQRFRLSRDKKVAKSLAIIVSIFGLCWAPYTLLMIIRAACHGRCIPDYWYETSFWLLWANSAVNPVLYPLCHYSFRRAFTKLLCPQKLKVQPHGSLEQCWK
Chain of Melanin-concentrating hormone receptor 1 (Homo sapiens) (Q99705 whole entry): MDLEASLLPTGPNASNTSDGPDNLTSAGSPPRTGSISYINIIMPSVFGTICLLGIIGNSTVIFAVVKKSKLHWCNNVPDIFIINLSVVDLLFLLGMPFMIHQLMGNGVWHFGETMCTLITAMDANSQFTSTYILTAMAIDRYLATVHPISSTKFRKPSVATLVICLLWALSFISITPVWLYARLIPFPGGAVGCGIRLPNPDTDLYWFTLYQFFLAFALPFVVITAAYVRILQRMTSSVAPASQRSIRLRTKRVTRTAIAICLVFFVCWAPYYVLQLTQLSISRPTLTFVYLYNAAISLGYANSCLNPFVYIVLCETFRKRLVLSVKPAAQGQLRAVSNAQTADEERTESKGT
Chain of Histamine H1 receptor (Homo sapiens) (P35367 whole entry): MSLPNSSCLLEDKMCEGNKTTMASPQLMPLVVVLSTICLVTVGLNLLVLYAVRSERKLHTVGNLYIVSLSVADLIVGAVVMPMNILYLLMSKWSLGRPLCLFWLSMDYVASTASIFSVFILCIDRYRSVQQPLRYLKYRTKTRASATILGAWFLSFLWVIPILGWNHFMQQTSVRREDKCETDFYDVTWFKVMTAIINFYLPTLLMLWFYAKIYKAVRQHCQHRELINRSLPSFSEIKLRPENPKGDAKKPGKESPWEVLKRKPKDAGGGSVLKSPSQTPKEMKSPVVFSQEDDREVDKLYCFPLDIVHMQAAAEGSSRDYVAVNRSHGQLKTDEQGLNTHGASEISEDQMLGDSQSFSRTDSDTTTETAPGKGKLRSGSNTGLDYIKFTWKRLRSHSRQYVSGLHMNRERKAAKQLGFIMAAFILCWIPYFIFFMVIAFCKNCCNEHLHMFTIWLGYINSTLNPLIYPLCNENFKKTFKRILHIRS
T1 sequence (Q9Y5N1 whole entry): as the sequence (Q865E1 whole entry) above, with N148D, G240A, A282V, T289A, A290T, A300V, Q442H counted along it

SMILES | inhibition (Histamine H3 receptor [1]) [%] | IC50 (Histamine H3 receptor [2]) [nM] | inhibition [3] [%] | inhibition [4] [%] | inhibition [5] [%] | further results
O=C(Nc1ccc(Cl)cc1)Nc1ccc(OCCCN2CCCCC2)cc1 | 119 | 0.7 | – | – | – | –
Cc1cc(NC(=O)NCc2cc(Cl)cc(Cl)c2)ccc1N1CCC(N2CCCC2C)C1 (configuration not stated) | 130 | 1.1 | < 40 | < 40 | < 40 | –
Cc1cc(NC(=O)Nc2cc(Cl)cc(Cl)c2)ccc1N1CCC(N2CCCC2C)C1 (configuration not stated) | 103 | 3.1 | < 40 | < 40 | < 40 | –
Cc1cccc(NC(=O)Nc2ccc(OCCCN(C)C)cc2)c1C | 125 | 14.7 | – | – | – | –
O=C(Nc1ccc(Cl)cc1)Nc1ccc(OCCN2CCCCC2)cc1 | 105 | 27.5 | – | – | – | –
CC(=O)N(C)C1CCN(C(=O)Nc2ccc(N3CCC(N4CCCC4C)C3)cc2)C1 (configuration not stated) | 109 | 1.1 | < 40 | < 40 | < 40 | –
CCN(CC)CCOc1ccc(NC(=O)Nc2c(Cl)cccc2Cl)cc1 | 116 | 1 | – | – | – | –
CN(C)CCc1ccc(NC(=O)Nc2ccc(CCN(C)C)cc2)cc1 | 94.7 | 6.5 | – | – | – | –
CC1CCCN1C1CCN(c2ccc(NC(=O)Nc3cc(Cl)cc(Cl)c3)cc2)C1 (configuration not stated) | 103 | 1.2 | < 40 | < 40 | < 40 | –
O=C(Nc1ccc(OCCN2CCCCC2)cc1)Nc1ccc(F)cc1F | 115 | 40.5 | – | – | – | –
CC(=O)N1CCN(C(=O)Nc2ccc(N3CCC(N4CCCC4C)C3)c(C)c2)CC1 (configuration not stated) | 115 | 2.3 | < 40 | < 40 | < 40 | –
CCN(CC)CCOc1ccc(NC(=O)Nc2ccc(Cl)cc2Cl)cc1 | 118 | 39.1 | – | – | – | –
Cc1cc(NC(=O)NC2CCCCC2)ccc1N1CCC(N2CCCC2C)C1 (configuration not stated) | 130 | 0.2 | < 40 | < 40 | < 40 | –
Cc1cc(NC(=O)Nc2ccc(Oc3ccccc3)cc2)ccc1N1CCC(N2CCCC2C)C1 (configuration not stated) | 126 | 0.6 | < 40 | < 40 | < 40 | Ki (Histamine receptor H3): 115 nM
CC1CCCN1C1CCN(c2ccc(NC(=O)NCc3cccs3)cc2)C1 (configuration not stated) | 129 | 0.1 | < 40 | < 40 | < 40 | Ki (Histamine receptor H3): 1.9 nM
CC(=O)N1CCN(C(=O)Nc2ccc(N3CCC(N4CCCC4C)C3)cc2)CC1 (configuration not stated) | 127 | 0.5 | < 40 | < 40 | < 40 | –
CC1CCCN1C1CCN(c2ccc(NC(=O)NC3CCCCC3)cc2)C1 (configuration not stated) | 122 | 0.1 | < 40 | < 40 | < 40 | –
Cc1cc(N2CCC(N3CCCC3C)C2)ccc1NC(=O)N1CCN(C)CC1 (configuration not stated) | 120 | 0.8 | < 40 | < 40 | < 40 | –
CC(=O)N(C)C1CCN(C(=O)Nc2ccc(N3CCC(N4CCCC4C)C3)c(C)c2)C1 (configuration not stated) | 118 | 1.1 | < 40 | < 40 | < 40 | –
Cc1cc(NC(=O)N2CCN(C)CC2)ccc1N1CCC(N2CCCC2C)C1 (configuration not stated) | 118 | 1.1 | < 40 | < 40 | < 40 | –
CC1CCCN1C1CCN(c2ccc(NC(=O)Nc3ccc(Oc4ccccc4)cc3)cc2)C1 (configuration not stated) | 113 | 1.4 | < 40 | < 40 | < 40 | Ki (Histamine receptor H3): 46.8 nM
O=C(Nc1ccc(OCCCN2CCCCC2)cc1)Nc1ccc(F)cc1F | 128 | 0.5 | – | – | – | Ki (Histamine H3 receptor [6]): 33 nM; Ki (Histamine receptor H3): 3.4 nM; Ki (Histamine H3 receptor [7]): 52 nM
CN(C)CCOc1ccc(NC(=O)Nc2ccc(Cl)cc2)cc1 | 99 | 16.4 | – | – | – | –
CC1CCCN1C1CCN(c2ccc(NC(=O)N3CCCCC3)cc2)C1 (configuration not stated) | 108 | 0.3 | < 40 | < 40 | < 40 | –
Cc1cccc(NC(=O)Nc2ccc(OCCN(C)C)cc2)c1C | 94 | 73.1 | – | – | – | –

The remaining compounds from weak to strong by IC50 (Histamine H3 receptor [2]), led by results:

inhibition (Histamine H3 receptor [1]) [%] | IC50 (Histamine H3 receptor [2]) [nM] | inhibition [3] [%] | inhibition [4] [%] | inhibition [5] [%] | SMILES | further results
102 | 149 | – | – | – | CN(C)CCOc1ccc(NC(=O)Nc2ccc(F)cc2F)cc1 | –
117 | 111 | – | – | – | CCN(CC)CCOc1ccc(NC(=O)Nc2ccc(F)cc2F)cc1 | –
107 | 9.1 | – | – | – | CCOc1ccc(C)cc1NC(=O)Nc1ccc(OCCN(CC)CC)cc1 | –
124 | 7.9 | – | – | – | CCN(CC)CCCOc1ccc(NC(=O)Nc2ccc(F)cc2F)cc1 | –
126 | 0.9 | < 40 | < 40 | < 40 | Cc1cc(N2CCC(N3CCCC3C)C2)ccc1NC(=O)Nc1cc(Cl)cc(Cl)c1 (configuration not stated) | inhibition at 10 µM (hERG (KCNH2)): 74%; solubility [10]: 10.5 µg/mL (≈ 23.5 µM)
129 | 0.6 | – | – | – | CCN(CC)CCOc1ccc(NC(=S)Nc2ccc(OCC(C)C)cc2)cc1 | Ki (Histamine H3 receptor [6]): 39.9 nM; Ki (Histamine receptor H3): 15.7 nM; Ki (Histamine H3 receptor [7]): 16.8 nM
125 | 0.5 | < 40 | < 40 | < 40 | O=C(Nc1ccc(OCCCN2CCCCC2)cc1)Nc1cc(Cl)cc(Cl)c1 | Ki (Histamine receptor H3): 3.4 nM
122 | 0.4 | < 40 | < 40 | < 40 | CC1CCCN1C1CCN(c2ccc(NC(=O)N3CCN(c4ccccc4)CC3)cc2)C1 (configuration not stated) | –
110 | 0.2 | < 40 | < 40 | < 40 | Cc1cc(N2CCC(N3CCCC3C)C2)ccc1NC(=O)NC1CCCCC1 (configuration not stated) | –
125 | 0.2 | < 40 | < 40 | < 40 | Cc1cc(NC(=O)NCc2cccs2)ccc1N1CCC(N2CCCC2C)C1 (configuration not stated) | –
133 | 0.2 | – | – | – | Cc1c(Cl)cc(NC(=O)Nc2ccc(OCCCN3CCCCC3)cc2)cc1Cl | metabolised [8]: 34%; metabolised [9]: 36%; solubility [10]: 6 µg/mL (≈ 13.7 µM); metabolised [11]: 10%; Ki (Histamine H3 receptor [6]): 135 nM; Ki (Histamine receptor H3): 18.2 nM; Ki (Histamine H3 receptor [7]): 112 nM
144 | 0.2 | < 40 | < 40 | < 40 | CC1CCCN1C1CCN(c2ccc(NC(=O)NCc3cc(Cl)cc(Cl)c3)cc2)C1 (configuration not stated) | Ki (Histamine receptor H3): 7.1 nM
132 | 0.2 | < 40 | < 40 | < 40 | CC1CCCN1C1CCN(c2ccc(NC(=O)N3CCN(C)CC3)cc2)C1 (configuration not stated) | –
